Data taken from ChEMBL document CHEMBL4831533, “Novel Substituted 1,6-Naphthyridines as CDK 5 Inhibitors for Treating Kidney Diseases” (ACS Med Chem Lett, 2021).

Molecular target: Cyclin-dependent kinase 5/CDK5 activator 1 (Homo sapiens, UniProt Q00535)
Assay: Inhibition of full length human CDK5 (1 to 292 residues)/p25 expressed in baculovirus expression system using FL peptide 29 as a substrate preincubated for 30 mins followed by substrate addition incubated for 60 mins in the presence of ATP by mobility shift assay

Cyclin-dependent kinase 5/CDK5 activator 1, sequence (Q00535 whole entry, the tested form may be a part): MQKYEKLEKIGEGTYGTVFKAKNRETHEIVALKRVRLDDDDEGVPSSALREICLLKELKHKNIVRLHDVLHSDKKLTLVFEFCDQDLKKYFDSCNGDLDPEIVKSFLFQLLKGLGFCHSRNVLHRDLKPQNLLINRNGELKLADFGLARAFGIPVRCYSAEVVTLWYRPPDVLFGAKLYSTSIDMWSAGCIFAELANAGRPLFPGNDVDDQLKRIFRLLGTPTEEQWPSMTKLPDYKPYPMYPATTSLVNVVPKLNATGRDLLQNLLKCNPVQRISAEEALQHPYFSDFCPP
Cyclin-dependent kinase 5/CDK5 activator 1, sequence (Q15078 whole entry, further chain, the tested form may be a part): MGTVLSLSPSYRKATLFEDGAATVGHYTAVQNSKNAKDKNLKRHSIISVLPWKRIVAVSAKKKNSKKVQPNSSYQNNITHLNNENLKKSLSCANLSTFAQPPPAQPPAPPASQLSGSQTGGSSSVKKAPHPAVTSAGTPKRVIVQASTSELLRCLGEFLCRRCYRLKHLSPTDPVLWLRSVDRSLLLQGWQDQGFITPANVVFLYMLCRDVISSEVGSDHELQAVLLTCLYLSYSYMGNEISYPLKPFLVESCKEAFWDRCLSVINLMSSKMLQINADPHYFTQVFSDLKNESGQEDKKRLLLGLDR

CN1CCC([C@@](C)(O)c2ccc3cnc(Nc4ccc(S(C)(=O)=O)cc4)cc3n2)CC1
IC50: < 10 nM

CN1CCC([C@@](C)(O)c2ccc3cnc(Nc4cccc(C(N)=O)c4)cc3n2)CC1
IC50: < 10 nM

CCOC(=O)c1cccc(Nc2cc3nc(SC4CCNCC4)ccc3cn2)c1
IC50: < 10 nM

CN1CCC(N(CC(=O)O)c2ccc3cnc(Nc4cccc(S(N)(=O)=O)c4)cc3n2)CC1
IC50: < 10 nM

CN1CCC(S(=O)(=O)c2ccc3cnc(Nc4ccc(N5CCCS5(=O)=O)cc4)cc3n2)CC1
IC50: < 10 nM

CN1CCC(C(=O)c2ccc3cnc(Nc4ccc(-n5cccn5)cc4F)cc3n2)CC1
IC50: < 10 nM
